# Patent publication US20230172204A1 (BASF SE, priority 2020, published 2023)
# How the values were obtained:
# [1] = system: Phakopsora pachyrhizi (F129L); assay: Protective control of soybean rust on soybeans (PHAKPA P2); assay type: in vivo; conditions: for % PHAKPA (F129L) Disease level P2 at 4 ppm: protective P2, 4 ppm; for % PHAKPA (F129L) Disease level P2 at 4 ppm / % PHAKPA (F129L) Disease level P2 at 16 ppm: soybean rust F129L; for % PHAKPA (F129L) Disease level P2 at 16 ppm: protective P2, 16 ppm; for PHAKPA (F129L) Disease level (%) P2 at 4 ppm: P2 protective, % diseased leaf area
# [2] = system: Phakopsora pachyrhizi (F129L); assay: Protective control of soybean rust on soybeans (PHAKPA P6); assay type: in vivo; conditions: for % PHAKPA (F129L) Disease level P6 at 4 ppm: protective P6, 4 ppm; for % PHAKPA (F129L) Disease level P6 at 4 ppm / % PHAKPA (F129L) Disease level P6 at 16 ppm: soybean rust F129L; for % PHAKPA (F129L) Disease level P6 at 16 ppm: protective P6, 16 ppm; for PHAKPA (F129L) Disease level (%) P6 at 16 ppm: P6 protective, % diseased leaf area
Compound,% PHAKPA (F129L) Disease level P2 at 4 ppm [1],% PHAKPA (F129L) Disease level P2 at 16 ppm [1],% PHAKPA (F129L) Disease level P6 at 4 ppm [2],% PHAKPA (F129L) Disease level P6 at 16 ppm [2],PHAKPA (F129L) Disease level (%) P2 at 4 ppm [1],PHAKPA (F129L) Disease level (%) P6 at 16 ppm [2]
CO/N=C(/C(=O)OC)c1cccc(C)c1CO/N=C(\C)c1ccc(Cl)c(Cl)c1C(F)(F)F [compound 429],83%,50%,67%,43%,,
CO/C=C(/C(=O)OC)c1cccc(C)c1CO/N=C(\C)c1ccc(Cl)c(Cl)c1C(F)(F)F [compound 430],22%,6%,37%,17%,,
CNC(=O)/C(=N/OC)c1cccc(C)c1CO/N=C(\C)c1ccc(Cl)c(Cl)c1C(F)(F)F [compound 431],32%,7%,40%,12%,,
CO/C=C(/C(=O)OC)c1cccc(C)c1CO/N=C(\C)c1ccc(-c2ccc(F)cc2)cc1C(F)(F)F [compound 432],12%,0%,13%,3%,,
CO/C=C(/C(=O)OC)c1cccc(C)c1CO/N=C(\C)c1ccc(-c2ccccc2)cc1OC(F)(F)F [compound 433],83%,67%,80%,57%,,
CNC(=O)/C(=N/OC)c1cccc(C)c1CO/N=C(\C)c1ccc(-c2ccccc2)cc1OC(F)(F)F [compound 435],93%,57%,87%,60%,,
CO/C=C(/C(=O)OC)c1cccc(C)c1CO/N=C(\C)c1c(Cl)cc(Cl)cc1OC(F)(F)F [compound 436],70%,15%,73%,27%,,
CO/C=C(/C(=O)OC)c1cccc(C)c1CO/N=C(\C)c1ccccc1CC(F)(F)F [compound 437],2%,0%,8%,0%,,
CNC(=O)/C(=N/OC)c1cccc(C)c1CO/N=C(\C)c1c(Cl)ccc(F)c1OC(F)(F)F [compound 440],93%,23%,73%,23%,,
CNC(=O)/C(=N/OC)c1cccc(C)c1CO/N=C(\C)c1c(Cl)ccc(Cl)c1OC(F)(F)F [compound 441],100%,43%,97%,50%,,
CO/C=C(/C(=O)OC)c1cccc(C)c1CO/N=C(\C)c1c(Cl)ccc(F)c1OC(F)(F)F [compound 442],100%,93%,80%,77%,,
CO/C=C(/C(=O)OC)c1cccc(C)c1CO/N=C(\C)c1c(Cl)ccc(Cl)c1OC(F)(F)F [compound 444],100%,47%,83%,53%,,
CO/C=C(/C(=O)OC)c1cccc(C)c1CO/N=C(\C)c1ccc(Br)cc1C(F)(F)F [compound 445],15%,1%,30%,2%,,
CO/C=C(/C(=O)OC)c1cccc(C)c1CO/N=C(\C)c1ccc(C)cc1C(F)(F)F [compound 446],2%,0%,6%,0%,,
CO/N=C(/C(=O)OC)c1cccc(C)c1CO/N=C(\C)c1ccc(F)c(F)c1OC(F)(F)F [compound 447],7%,0%,33%,1%,,
CNC(=O)/C(=N/OC)c1cccc(C)c1CO/N=C(\C)c1ccc(Cl)c(F)c1OC(F)(F)F [compound 449],33%,10%,57%,9%,,
CO/C=C(/C(=O)OC)c1cccc(C)c1CO/N=C(\C)c1ccc(F)c(F)c1OC(F)(F)F [compound 450],3%,1%,4%,1%,,
CNC(=O)/C(=N/OC)c1cccc(C)c1CO/N=C(\C)c1ccc(F)c(F)c1OC(F)(F)F [compound 451],1%,0%,2%,0%,,
COC=C(C(=O)OC)c1cccc(C)c1CON=C(C)c1ccc(Cl)c(F)c1OC(F)(F)F [compound 452],60%,6%,70%,14%,,
CNC(=O)/C(=N/OC)c1cccc(C)c1CO/N=C(/c1ccccc1)C(F)(F)F [compound 458],93%,57%,83%,50%,,
CNC(=O)/C(=N/OC)c1cccc(OC)c1CO/N=C(\C)c1cccc(C(F)(F)F)c1 [compound 461],26%,2%,52%,6%,,
COC=C(C(=O)OC)c1cccc(C)c1CON=C(C)c1ccccc1OC(F)(F)F [compound 462],37%,6%,55%,10%,,
COC=C(C(=O)OC)c1cccc(C)c1CON=C(C)c1ccc(OC(F)(F)F)cc1Cl [compound 463],6%,0%,3%,0%,,
COC=C(C(=O)OC)c1cccc(C)c1CON=C(C)c1ccc(OC)cc1C(F)(F)F [compound 464],1%,0%,8%,0%,,
"CO/N=C(/C(=O)OC)c1cccc(C)c1CO/N=C(\OC)c1cccc(C)c1 [drawing 970, reference compound]",,,,,83%,57%
"CO/N=C(/C(=O)OC)c1cccc(C)c1CO/N=C(/c1cccc(C)c1)C1CC1 [drawing 971, reference compound]",,,,,80%,37%
"CO/N=C(/C(=O)OC)c1cccc(C)c1CO/N=C(\SC)c1cccc(C)c1 [drawing 972, reference compound]",,,,,60%,30%
